US10167262B2, “Herbicidal substituted 3-arylpyrazoles” (FMC CORPORATION, priority 2014, dated 2019)
Read-outs that look alike come from different tables or passages of the source.

Tests used:
Test in all cases: Test C pre-/postemergence greenhouse test, plant response rating 0-100
Assay type in all cases: in vivo
[1] = test system: Italian ryegrass (Lolium multiflorum); conditions: Lolium multiflorum; for pest or weed control at 62 g/ha: 62 g ai/ha; for pest or weed control at 125 g/ha: 125 g ai/ha; for pest or weed control at 250 g/ha: 250 g ai/ha; for pest or weed control at 500 g/ha: 500 g ai/ha
Procedure, shortened: (§1)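 Greenhouse test. Preemergence: seed in loam:sand, sprayed with formulated chemical (solvent + surfactant). Postemergence: 1–4 leaf plants, 2–18 cm, peat-based potting medium. Hold 13–15 d; score visually, 0 (none) to 100 (complete control); dash = not tested.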

corn (Zea mays) = conditions: Zea mays; for Corn plant response rating (crop injury, 0 = no effect, 100 = complete kill) at 250 g/ha: 250 g ai/ha; for Corn plant response rating (crop injury, 0 = no effect, 100 = complete kill) at 500 g/ha: 500 g ai/ha
Procedure, shortened: as §1

[2] = test system: galium (catchweed bedstraw, Galium aparine); conditions: Galium; for pest or weed control at 62 g/ha: 62 g ai/ha; for pest or weed control at 125 g/ha: 125 g ai/ha; for pest or weed control at 250 g/ha: 250 g ai/ha; for pest or weed control at 500 g/ha: 500 g ai/ha
Procedure, shortened: as §1

[3] = test system: giant foxtail (Setaria faberii); conditions: Setaria faberi; for pest or weed control at 62 g/ha: 62 g ai/ha; for pest or weed control at 125 g/ha: 125 g ai/ha; for pest or weed control at 250 g/ha: 250 g ai/ha; for pest or weed control at 500 g/ha: 500 g ai/ha
Procedure, shortened: as §1

[4] = test system: johnsongrass (Sorghum halepense); conditions: Sorghum halepense; for pest or weed control at 62 g/ha: 62 g ai/ha; for pest or weed control at 125 g/ha: 125 g ai/ha; for pest or weed control at 250 g/ha: 250 g ai/ha; for pest or weed control at 500 g/ha: 500 g ai/ha
Procedure, shortened: as §1

[5] = test system: lambsquarters (Chenopodium album); conditions: Chenopodium album; for pest or weed control at 62 g/ha: 62 g ai/ha; for pest or weed control at 125 g/ha: 125 g ai/ha; for pest or weed control at 250 g/ha: 250 g ai/ha; for pest or weed control at 500 g/ha: 500 g ai/ha
Procedure, shortened: as §1

[6] = test system: large (Lg) crabgrass (Digitaria sanguinalis); conditions: Digitaria sanguinalis, post-emergence, Postemergence
Procedure, shortened: as §1

[7] = post-emergence, Postemergence, read-out: Plant response rating (0 to 100), Ryegrass, Italian
[8] = post-emergence, Postemergence, scale 0 to 100
[9] = pre-emergence, Preemergence, read-out: Plant response rating, Ryegrass, Italian
[10] = post-emergence, Postemergence, read-out: Plant response rating (0 to 100), Galium
[11] = pre-emergence, Preemergence, read-out: Plant response rating, Galium
[12] = post-emergence, Postemergence, read-out: Plant response rating (0 to 100), Foxtail, Giant
[13] = pre-emergence, Preemergence, read-out: Plant response rating, Foxtail, Giant
[14] = post-emergence, Postemergence, read-out: Plant response rating (0 to 100), Johnsongrass
[15] = pre-emergence, Preemergence, read-out: Plant response rating, Johnsongrass
[16] = post-emergence, Postemergence, read-out: Plant response rating (0 to 100), Lambsquarters
[17] = pre-emergence, Preemergence, read-out: Plant response rating, Lambsquarters

Work on `COC(OC)(c1ccccc1)c1c[nH]nc1-c1cc(Cl)cc(Cl)c1` [Compound 13, 3-(3,5-dichlorophenyl)-4-(dimethoxyphenylmethyl)-1H-pyrazole] yielded a pest or weed control at 62 g/ha [1, 7] of 0%, a pest or weed control at 125 g/ha [1, 7] of 0% and a pest or weed control at 250 g/ha [1, 8] of 0%. For the same molecule, the pest or weed control at 500 g/ha [1, 8] was 0%, the pest or weed control at 62 g/ha [1, 9] was 0% and the pest or weed control at 125 g/ha [1, 9] was 0%. It also gave a pest or weed control at 250 g/ha ([1]; pre-emergence, Preemergence) of 0%, a pest or weed control at 500 g/ha ([1]; pre-emergence, Preemergence) of 0% and a plant injury at 62 g/ha (corn (Zea mays); post-emergence, Postemergence, 62 g ai/ha) of 0%. It also gave a plant injury at 125 g/ha (corn (Zea mays); post-emergence, Postemergence, 125 g ai/ha) of 0%, a Corn plant response rating (crop injury, 0 = no effect, 100 = complete kill) at 250 g/ha (corn (Zea mays); [8]) of 0% and a Corn plant response rating (crop injury, 0 = no effect, 100 = complete kill) at 500 g/ha (corn (Zea mays); [8]) of 0%. For the same molecule, the Corn plant response rating (crop injury, 0 = no effect, 100 = complete kill) at 62 g/ha (corn (Zea mays); pre-emergence, Preemergence, 62 g ai/ha) was 0%, the Corn plant response rating (crop injury, 0 = no effect, 100 = complete kill) at 125 g/ha (corn (Zea mays); pre-emergence, Preemergence, 125 g ai/ha) was 0% and the Corn plant response rating (crop injury, 0 = no effect, 100 = complete kill) at 250 g/ha (corn (Zea mays); pre-emergence, Preemergence) was 0%. It also gave a Corn plant response rating (crop injury, 0 = no effect, 100 = complete kill) at 500 g/ha (corn (Zea mays); pre-emergence, Preemergence) of 0%, a pest or weed control at 62 g/ha [2, 10] of 0% and a pest or weed control at 125 g/ha [2, 10] of 0%. The pest or weed control at 250 g/ha [2, 8] was 40%, the pest or weed control at 500 g/ha [2, 8] was 10% and the pest or weed control at 62 g/ha [2, 11] was 60%. The pest or weed control at 125 g/ha [2, 11] was 0%, the pest or weed control at 250 g/ha ([2]; pre-emergence, Preemergence) was 30% and the pest or weed control at 500 g/ha ([2]; pre-emergence, Preemergence) was 0%. For the same molecule, the pest or weed control at 62 g/ha [3, 12] was 0%, the pest or weed control at 125 g/ha [3, 12] was 0% and the pest or weed control at 250 g/ha [3, 8] was 0%. The pest or weed control at 500 g/ha [3, 8] was 0%, the pest or weed control at 62 g/ha [3, 13] was 0% and the pest or weed control at 125 g/ha [3, 13] was 0%. The pest or weed control at 250 g/ha ([3]; pre-emergence, Preemergence) was 0%, the pest or weed control at 500 g/ha ([3]; pre-emergence, Preemergence) was 0% and the pest or weed control at 62 g/ha [4, 14] was 0%. It also gave a pest or weed control at 125 g/ha [4, 14] of 0%, a pest or weed control at 250 g/ha [4, 8] of 0% and a pest or weed control at 500 g/ha [4, 8] of 0%. It also gave a pest or weed control at 62 g/ha [4, 15] of 0%, a pest or weed control at 125 g/ha [4, 15] of 0% and a pest or weed control at 250 g/ha ([4]; pre-emergence, Preemergence) of 0%. It also gave a pest or weed control at 500 g/ha ([4]; pre-emergence, Preemergence) of 0%, a pest or weed control at 62 g/ha [5, 16] of 75% and a pest or weed control at 125 g/ha [5, 16] of 80%. For the same molecule, the pest or weed control at 250 g/ha [5, 8] was 98%, the pest or weed control at 500 g/ha [5, 8] was 98% and the pest or weed control at 62 g/ha [5, 17] was 100%. The pest or weed control at 125 g/ha [5, 17] was 100%, the pest or weed control at 250 g/ha ([5]; pre-emergence, Preemergence) was 100% and the pest or weed control at 500 g/ha ([5]; pre-emergence, Preemergence) was 100%. It also gave a pest or weed control at 62 g/ha ([6]; 62 g ai/ha, read-out: Plant response rating (0 to 100), Crabgrass, Large) of 0%, a pest or weed control at 125 g/ha ([6]; 125 g ai/ha, read-out: Plant response rating (0 to 100), Crabgrass, Large) of 10% and a pest or weed control at 250 g/ha ([6]; 250 g ai/ha, scale 0 to 100) of 10%. For the same molecule, the pest or weed control at 500 g/ha ([6]; 500 g ai/ha, scale 0 to 100) was 0%.
